Tested on: axons of E15 DRG sensory neurons
Test: Axonal degeneration assay in compartmented chamber cultures (degeneration index)
Assay type: cell-based, rat
Method: Cell culture. Compartmented chamber (Campenot) cultures were prepared as described (see, e.g., Fenstermacher et al., Springer Protocols: Neuromethods, 103:105-124 (2015)), with modifications. Briefly, DRGs from embryonic day 15 (E15) rats of either sex were dissected and trypsinized. DRGs (1.2×10^5 cells) were plated in the center compartment of a Teflon divider (Camp10, Tyler Research; Campenot, 1982) affixed to a p35 culture dish coated with growth factor reduced Matrigel basement membrane (BD Biosciences) 1:45 in DMEM. Cultures were maintained in media consisting of Neurobasal (Invitrogen) with 2% B27 supplement (Invitrogen), 1% penicillin-streptomycin, 1% GlutaMAX (Life Technologies), 0.08% glucose, and 0.3 μM cytosine arabinoside (AraC) at 37° C., 7.5% CO2; BDNF+NGF (PeproTech) were added to the cell body compartment at a concentration of 10 ng/ml and to the axon compartment at a concentration of 100 ng/ml for 2d. On day 3, media was replaced and the AraC was omitted. On day 5, neurotrophins were removed from the cell body compartment and reduced to 1 ng/ml in the axon compartments for 3-5 days. […] For calpain inhibition experiments, 20 μM calpain inhibitor III (VWR) and paclitaxel were added simultaneously to distal axon compartment.
Axonal degeneration assay. Compartmented chamber cultures were fixed at room temperature with 4% PFA diluted 1:2 in media for 10 min, then undiluted 4% PFA for an additional 20 min. Cultures were permeabilized with 0.1% TritonX-100 for 10 min, blocked in 3% BSA and 0.1% Triton X-100 for 1 hour at room temperature, and incubated with mouse anti-Tuj1 (1:400; clone Tuj1; Covance) overnight at 4° C. Cultures were then incubated with goat anti-mouse AlexaFluor (1:1000; Invitrogen) for 1 hour at room temperature and counterstained with DAPI. Images of distal axon tips were obtained using a 40× air objective, and axonal degeneration was quantified as a degeneration index, as previously described (Cosker et al., Neuroscience, 33:5195-5207 (2013)). Apoptosis analysis was carried out on the same cultures by taking images in the cell body compartment and counting total and condensed nuclei in NIH ImageJ software by an observer blind to condition.
Protein and peptide introduction. Recombinant His-tagged Bclw, Bcl2, and BclxL proteins (R&D Systems) or control β-galactosidase protein were introduced into cell bodies or axons of compartmented chamber cultures as described (e.g., Cosker et al., Nature Neuroscience, 19:690-696 (2016)). Briefly, 1 μg/μ1 protein was introduced into cultures using 2 μl Chariot reagent (Active Motif). To confirm expression of His-tagged proteins, cell bodies and axons were lysed in nonionic detergent, and protein lysates were separated as above and blotted with the following antibodies: anti-His (1:1000; Novagen) and anti-pan-actin (1:1000; Cell Signaling Technology). FITC-tagged SAHB peptides (BH4-Bclw, BH4-Bcl2, and BH4-BclxL; stock solutions 1 mM in DMSO) were introduced into cell bodies or axons using 350 ng peptide and 2 μl of Chariot reagent diluted 1:10 in water. Control was no peptide with 2 μl of 1:10 diluted Chariot. To confirm peptide expression, cultures were processed for axonal degeneration assay as above, and FITC immunofluorescence was examined with a 40× air objective. Paclitaxel was added to cultures 1 hour after protein or peptide transfection.

[1] = His-tagged recombinant protein transfected into axons
[2] = protein introduced into cell bodies instead of axons

calpain inhibitor III
effect on paclitaxel-induced axon degeneration (20 μM to axons, added with paclitaxel): prevented paclitaxel-induced degeneration

BclxL: Recombinant His-tagged BclxL protein (R&D Systems) introduced by protein transfection
effect on paclitaxel-induced axon degeneration [1]: neither BclxL nor Bcl2 prevented degeneration | effect on paclitaxel-induced axon degeneration [2]: failed to inhibit paclitaxel-induced degeneration

Bcl2: Recombinant His-tagged Bcl2 protein (R&D Systems) introduced by protein transfection
effect on paclitaxel-induced axon degeneration [1]: neither BclxL nor Bcl2 prevented degeneration | effect on paclitaxel-induced axon degeneration [2]: failed to inhibit paclitaxel-induced degeneration

B1: Bclw: Recombinant His-tagged Bclw protein (R&D Systems) introduced by protein transfection (protein, UniProt Q92843 2-193, looked up)
Bcl-2-like protein 2: ATPASAPDTRALVADFVGYKLRQKGYVCGAGPGEGPAADPLHQAMRAAGDEFETRFRRTFSDLAAQLHVTPGSAQQRFTQVSDELFQGGPNWGRLVAFFVFGAALCAESVNKEMEPLVGQVQEWMVAYLETQLADWIHSSGGWAEFTALYGDGALEEARRLREGNWASVRTVLTGAVALGALVTVGAFFASK
modifications: His tag
notes: Recombinant His-tagged Bclw protein (R&D Systems) introduced by protein transfection
effect on paclitaxel-induced axon degeneration [1]: completely prevented paclitaxel-induced axon degeneration | effect on paclitaxel-induced axon degeneration [2]: failed to inhibit paclitaxel-induced degeneration

Reference: patent US12441775B2, “BCL-W polypeptides and mimetics for treating or preventing chemotherapy-induced peripheral neuropathy and hearing loss” (Dana-Farber Cancer Institute, Inc., priority 2016, dated 2025)
